This is an account of results in patent US9017645B2, “Homoglutamic acid derivatives” (Piramal Imaging SA, priority 2009, dated 2015).

Each structure is given as a SMILES string.

In data set [1] the test system is H460 tumor cells. Nature of the data set: Retention of activity in H460 tumor cells under efflux conditions. The class given is cell-based, human. The settings on record: H460 cells loaded 30 min, then 30 min incubation in new buffer (efflux conditions). As for the experimental part: FIG. 5: Retention of (2S)-2-amino-5-[3-[^18F]fluoropropyl]hexanedioic acid in H460 tumor cells. H460 cells were loaded with 0.25 MBq (2S)-2-amino-5-[3-[^18F]fluoropropyl]hexanedioic acid for 30 min in PBS/BSA. After washing, the cells were incubated with new buffer (without radioactivity) for additional 10, 20, 30 min. The release of radioactivity into the supernatant as well as the retention inside the cells was determined.
In a second experiment, the retention of activity in tumor cells was examined. H460 cells were loaded with 0.25 MBq (2S)-2-amino-5-[3-[^18F]fluoropropyl]hexanedioic acid for 30 minutes in PBS/BSA-buffer. After this uptake, the buffer was removed and the cells were washed with PBS. The cells were then incubated with new PBS-buffer (without activity) for up to 30 min. The release of activity into the supernatant as well as the retention of activity inside the cells was examined. It was discovered, that more than 80% of activity were retained in the tumor cells after 30 min incubation under these efflux conditions (see FIG. 5).

In data set [2] the test system is NCI-H460 (human NSCLC) tumor bearing nude-rats. Nature of the data set: PET imaging in NCI-H460 tumor bearing nude-rats. The data set is classed as in vivo, nude-rats (RH-Foxn1 nu/nu). The settings on record: 8.35 MBq i.v., PET at 60 min p.i. for 10 min. As to the method:
FIG. 6: PET-Imaging of (2S)-2-amino-5-[3-[^18F]fluoropropyl]hexanedioic acid in H460 tumor bearing rats. 8.35 MBq of radioactive tracer was injected i.v. into rats. PET images were obtained using the Siemens Inveon PET/CT scanner from 60 min p.i. for 10 min.
PET imaging. (2S)-2-amino-5-[3-[^18F]fluoropropyl]hexanedioic acid was examined in NCI-H460 (human NSCLC) tumor bearing nude-rats (RH-Foxn1 nu/nu) using PET-Imaging. 8.35 MBq of (2S)-2-amino-5-[3-[^18F]fluoropropyl]hexanedioic acid was injected into the rat. PET images were acquired at 60 min p.i. for 10 min. […] 3.2% of the injected dose was taken up per gram of tumor as was determined by region of interest (ROI) analysis (FIG. 6).

The subject of data set [3] is H460 (human NSCLC) cells. Nature of the data set: Cell uptake of F-18 labeled tracer in H460 cells. The class given is cell-based. The settings on record: 0.25 MBq, 60 min incubation, PBS 0.1% BSA. As to the method:
FIG. 4: Time dependent uptake of (2S)-2-amino-5-[3-[^18F]fluoropropyl]hexanedioic acid was determined. H460 cells were incubated with 0.25 MBq (2S)-2-amino-5-[3-[^18F]fluoropropyl]hexanedioic acid for up to 60 min and the cell-bound fraction was determined after 10, 20, 30 and 60 min)
Cell uptake & Retention of (2S)-2-amino-5-[3-[^18F]fluoropropyl]hexanedioic acid—For determination of the biological activity of (2S)-2-amino-5-[3-[^18F]fluoropropyl]hexanedioic acid, the F-18 labeled compound was used as tracer in a cell uptake experiment using H460 (human NSCLC) cells. Approximately 100.000 cells were incubated with 0.25 MBq (2S)-2-amino-5-[3-[^18F]fluoropropyl]hexanedioic acid for up to 60 minutes in PBS-buffer containing 0.1% BSA and the cell-bound fraction was determined. A time-dependent uptake was observed during the 60 min incubation period. Approximately 20% of applied dose was taken up by the cells during the 60 min incubation period (FIG. 4).

Turning to `N[C@@H](CCC(CCC[18F])C(=O)O)C(=O)O` (stereo partly drawn) [(2S)-2-amino-5-[3-[^18F]fluoropropyl]hexanedioic acid], the “activity retained in the tumor cells” value in data set [1] is reported as “more than 80%”. In data set [2], the “tumor uptake by region of interest (ROI) analysis” value was 3.2 % of the injected dose per gra and the “visibility of the tumor in PET images” value is “very well visible”. Moreover, in data set [3], the “cell uptake (cell-bound fraction)” value is reported as “Approximately 20 % of applied dose”.
